Laboratory results published in patent US6713629B2 (dated 2004).

CC1(c2ccccc2)SC(=S)N(Nc2ccccc2)C1=NOC(=O)Nc1ccc(Cl)c(Cl)c1 (stereo not shown)
melting point: 95 to 96 °C
